# US6503938B1, “2-phenylindoles as antiestrogenic pharmaceutical agents” (Schering Aktiengesellschaft, priority 1994, dated 2003)
# Key:
# [1] = system: hormone-sensitive human MCF-7 breast cancer cells; experiment: Cytostatic activity on hormone-sensitive human MCF-7 breast cancer cells (T/C of optical densities); format: cell-based; settings: mean of 16 determinations ± SD
# [2] = molecular target: T1, estrogen receptor consisting of calf uterus cytosol (Bos taurus, UniProt P49884); experiment: Relative binding affinity (RBA) for the estrogen receptor, displacement of 3H-17β-estradiol; settings: RBA(17β-estradiol) = 100
# T1 construct: for the estrogen receptor consisting of calf uteri; from tissue; host or cells: calf uterus
# T1 sequence (P49884 1-596): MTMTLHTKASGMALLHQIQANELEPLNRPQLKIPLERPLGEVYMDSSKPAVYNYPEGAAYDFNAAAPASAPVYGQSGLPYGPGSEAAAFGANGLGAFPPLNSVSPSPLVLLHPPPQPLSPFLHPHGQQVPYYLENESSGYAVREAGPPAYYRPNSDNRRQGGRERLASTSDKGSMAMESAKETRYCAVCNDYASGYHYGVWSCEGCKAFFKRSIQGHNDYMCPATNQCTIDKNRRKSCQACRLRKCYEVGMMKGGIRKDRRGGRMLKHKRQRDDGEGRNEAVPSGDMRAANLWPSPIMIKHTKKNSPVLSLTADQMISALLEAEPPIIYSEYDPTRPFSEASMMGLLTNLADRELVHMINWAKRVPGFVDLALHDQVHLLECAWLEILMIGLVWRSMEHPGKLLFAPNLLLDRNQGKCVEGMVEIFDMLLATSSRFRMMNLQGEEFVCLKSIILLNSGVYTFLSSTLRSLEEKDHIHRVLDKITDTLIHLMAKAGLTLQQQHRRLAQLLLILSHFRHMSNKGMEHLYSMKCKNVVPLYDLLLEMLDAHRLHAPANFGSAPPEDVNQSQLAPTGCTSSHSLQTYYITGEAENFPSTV
# uterus of infantile mice = experiment: Uterus weight test in infantile mice (estrogenic and antiestrogenic action); format: in vivo; settings: for estrogenic action on the uterus of infantile mice: s.c. in olive oil on three successive days, uterus dry weight/body weight 24 hours after the last injection
# Procedure: Compound no. […] For compounds nos. […] The dose/animal was administered s.c., dissolved in olive oil, on three successive days. The dry weight of the uterus [mg]/body weight [g]×100 was determined 24 hours after the last injection. This test is described in detail in Cancer Treatment Reviews, 1984, 11, 147 and J. Med. Chem., 1984, 27, 1439.
# [3] = substance concentration 1 · 10^−6 M in the incubation medium
# [4] = substance concentration 1 · 10^−7 M in the incubation medium
# [5] = substance concentration 1 · 10^−8 M in the incubation medium
# [6] = substance concentration 1 · 10^−9 M in the incubation medium
molecule,measurement,setting,value
5-hydroxy-2-(4-hydroxyphenyl)-3-methyl-1-[12-[2-(N-methyl-imidazolyl)thio]-decyl]-indole [Compound 7],T/C [%],[1]; [3],36.8 ± 8.7%
same,T/C [%],[1]; [4],60.4 ± 9.1%
same,T/C [%],[1]; [5],83.8 ± 11.3%
same,RBA(*) relative binding affinity for the estrogen receptor,[2],2.0
"CCCCCSCCCCCCCCCCn1c(-c2ccc(O)cc2)c(C)c2cc(O)ccc21 [Compound 1, 5-Hydroxy-2-(4-hydroxyphenyl)-3-methyl-1-[10-(pentylthio)-decyl]-indole]",RBA(*) relative binding affinity for the estrogen receptor,[2],0.3
"CCCCC[S+]([O-])CCCCCCCCCCn1c(-c2ccc(O)cc2)c(C)c2cc(O)ccc21 (stereo not shown) [Compound 2, 5-Hydroxy-2-(4-hydroxyphenyl)-3-methyl-1-[10-(pentylsulfinyl)-decyl]-indole]",RBA(*) relative binding affinity for the estrogen receptor,[2],3.4
"CCCCCS(=O)(=O)CCCCCCCCCCn1c(-c2ccc(O)cc2)c(C)c2cc(O)ccc21 [Compound 3, 5-Hydroxy-2-(4-hydroxyphenyl)-3-methyl-1-[10-(pentylsulfonyl)-decyl]-indole]",action of estrogen (0.4 μg/animal) on the uterus (antiestrogenic effect),"uterus of infantile mice; 10 mg/kg s.c., three successive days, with estrogen 0.4 μg/animal",completely cancelled out
same,dry weight of the uterus compared to control level,"uterus of infantile mice; dose of 35 mg/kg s.c., three successive days",still lies below the control level
same,estrogenic action on the uterus of infantile mice,uterus of infantile mice,does not show any estrogenic action
"CCCS(=O)(=O)CCCCCCCCCCCCn1c(-c2ccc(O)cc2)c(C)c2cc(O)ccc21 [Compound 4, 5-hydroxy-2-(4-hydroxyphenyl)-3-methyl-1-[12-(propylsulfonyl)-dodecyl]-indole]",RBA(*) relative binding affinity for the estrogen receptor,[2],1.9
"CCC[S+]([O-])CCCCCCCCCCCCn1c(-c2ccc(O)cc2)c(C)c2cc(O)ccc21 (stereo not shown) [Compound 5, 5-hydroxy-2-(4-hydroxyphenyl)-3-methyl-1-[12-(propylsulfinyl)-dodecyl]-indole]",RBA(*) relative binding affinity for the estrogen receptor,[2],2.9
"Cc1c(-c2ccc(O)cc2)n(CCCCCCCCSc2ccccn2)c2ccc(O)cc12 [Compound 6, 5-hydroxy-2-(4-hydroxyphenyl)-3-methyl-1-[8-(2-pyridinylthio)-octyl]-indole]",melting point,,56 to 60 °C
same,RBA(*) relative binding affinity for the estrogen receptor,[2],1.4
"CCCS(=O)(=O)N(C)CCCCCCCCCCCn1c(-c2ccc(O)cc2)c(C)c2cc(O)ccc21 [Compound 8, 5-hydroxy-2-(4-hydroxyphenyl)-3-methyl-1-[11-(N-methyl-propylsulfonamido)-undecyl]-indole]",RBA(*) relative binding affinity for the estrogen receptor,[2],1.8
"Cc1c(-c2ccc(O)cc2)n(CCCCCCCCCCCN(C)S(=O)(=O)Cc2ccccc2)c2ccc(O)cc12 [Compound 9, 5-hydroxy-2-(4-hydroxyphenyl)-3-methyl-1-[11-(N-methyl-phenylmethanesulfonamido)-undecyl]-indole]",RBA(*) relative binding affinity for the estrogen receptor,[2],1.0
"CCCCN(C)S(=O)(=O)CCCCCCCCCCn1c(-c2ccc(O)cc2)c(C)c2cc(O)ccc21 [Compound 10, 1-[10-(n-butyl-methylsulfamoyl)-decyl]-5-hydroxy-(4-hydroxyphenyl)-3-methylindole]",T/C [%],[1]; [3],−12.3 ± 6.3%
same,T/C [%],[1]; [4],−13.4 ± 4.5%
same,T/C [%],[1]; [5],0.5 ± 6.3%
same,T/C [%],[1]; [6],86.3 ± 18.0%
same,RBA(*) relative binding affinity for the estrogen receptor,[2],2.6
"Cc1c(-c2ccc(O)cc2)n(CCCCCCCCC[S+]([O-])CCCC(F)(F)C(F)(F)F)c2ccc(O)cc12 (stereo not shown) [Compound 11, 5-hydroxy-2-(4-hydroxyphenyl)-3-methyl-1-[9-(4,4,5,5,5-pentafluoropentylsulfinyl)-nonyl]-indole]",estrogenic action on the uterus of infantile mice,uterus of infantile mice,virtually identical results
same,RBA(*) relative binding affinity for the estrogen receptor,[2],2.4
"Cc1c(-c2ccc(O)cc2)n(CCCCCCCCCS(=O)(=O)CCCC(F)(F)C(F)(F)F)c2ccc(O)cc12 [Compound 12, 5-hydroxy-2-(4-hydroxyphenyl)-3-methyl-1-[9-(4,4,5,5,5-pentafluoropentylsulfonyl)-nonyl]-indole]",RBA(*) relative binding affinity for the estrogen receptor,[2],1.0
"CCCCN(C)C(=O)CCCSCCCCCCn1c(-c2ccc(O)cc2)c(C)c2cc(O)ccc21 [Compound 13, 1-{6-[3′-(n-butyl-methylcarbamoyl)-propylthio]-hexyl}-5-hydroxy-2-(4-hydroxyphenyl)-3-methylindole]",T/C [%],[1]; [3],15.8 ± 6.9%
same,T/C [%],[1]; [4],40.2 ± 11.4%
same,T/C [%],[1]; [5],92.9 ± 15.2%
same,T/C [%],[1]; [6],85.6 ± 16.0%
same,RBA(*) relative binding affinity for the estrogen receptor,[2],1.3
"Cc1c(-c2ccc(O)cc2)n(CCCCCCCCCCSCC(=O)N(C)C(C)C)c2ccc(O)cc12 [Compound 14, 5-hydroxy-2-(4-hydroxyphenyl)-3-methyl-1-[10-[(methyl-iso-propylcarbamoyl)-methylthio]-decyl]-indole]",RBA(*) relative binding affinity for the estrogen receptor,[2],1.7
"CCCCCS(=O)(=O)CCCCOc1ccc(Cn2c(-c3ccc(O)cc3)c(C)c3cc(O)ccc32)cc1 [Compound 15, 5-hydroxy-2-(4-hydroxyphenyl)-3-methyl-1-[4-[4-(pentylsulfonyl)butoxy]-benzyl]-indole]",RBA(*) relative binding affinity for the estrogen receptor,[2],9.5
"CCCCCSCCCCCCCCCCn1c2c(c3cc(O)ccc31)CCc1cc(O)ccc1-2 [Compound 16, 6,11-dihydro-3,8-dihydroxy-5H-1-[10-(pentylthio)-decyl]benzo[a]carbazole]",T/C [%],[1]; substance concentration 1 · 10^−5 M in the incubation medium,−38.6 ±13.9%
same,T/C [%],[1]; [3],−7.8 ± 8.9%
same,T/C [%],[1]; [4],−18.5 ± 15.4%
same,T/C [%],[1]; substance concentration 6 · 10^−6 M in the incubation medium,−31.1 ± 10.0%
same,RBA(*) relative binding affinity for the estrogen receptor,[2],0.13
"COc1ccc(-c2c(C)c3cc(OC)ccc3n2CCCCCCCCSc2ccccn2)cc1 [Example 6, 5-Methoxy-2-(4-methoxyphenyl)-3-methyl-1-[8-(2-pyridinylthio)-octyl]-indole]",melting point,,75 to 77 °C
"CNC(=O)CCCCCCCCCCn1c(-c2ccc(OC)cc2)c(C)c2cc(OC)ccc21 [Example 7, 5-Methoxy-2-(4-methoxyphenyl)-3-methyl-1-[10-(N-methylcarbamoyl)-decyl]-indole]",melting point,,88 °C
